Legend:
5HT3 receptor = target: T1, 5HT3 receptor (Rattus norvegicus, UniProt P35563); test: Inhibition of the von Bezold-Jarisch chemoreflex evoked by 5-HT in the anesthetized rat (in-vivo 5HT3 antagonist activity); settings: von Bezold-Jarisch reflex elicited by 5-HT (30 μg/kg i.v.); for ED50: iv, limits printed on the next line; for % inhibition: dose 100 μg/kg i.v., N = 6, mean
T1 construct: chemoreflex evoked by 5HT in the anesthetized rat; from tissue; host or cells: anesthetized rat, whole animal (endogenous receptor)
T1 sequence (P35563 24-483): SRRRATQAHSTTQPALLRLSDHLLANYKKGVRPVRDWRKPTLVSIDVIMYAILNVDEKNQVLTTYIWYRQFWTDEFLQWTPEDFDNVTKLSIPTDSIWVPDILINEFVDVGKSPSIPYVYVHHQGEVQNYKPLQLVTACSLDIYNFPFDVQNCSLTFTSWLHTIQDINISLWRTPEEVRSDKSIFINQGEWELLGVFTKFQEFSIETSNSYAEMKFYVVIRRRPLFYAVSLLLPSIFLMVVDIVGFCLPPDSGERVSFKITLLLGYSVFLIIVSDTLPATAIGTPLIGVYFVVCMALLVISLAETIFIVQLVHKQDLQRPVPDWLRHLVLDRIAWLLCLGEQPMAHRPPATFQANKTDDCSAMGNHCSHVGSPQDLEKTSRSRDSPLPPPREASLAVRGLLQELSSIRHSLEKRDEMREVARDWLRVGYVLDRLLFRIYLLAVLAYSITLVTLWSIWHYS
Protocol: Pharmacol. 326, 36-44 (1984).
The following Table I reports in-vivo 5HT3 antagonist activity data obtained in this test for two representative compounds of the invention.
Inhibition of the von Bezold-Jarisch reflex
elicited by 5-HT (30 μg/kg i.v.) by FCE
compounds in the anesthetized rat. Values are
mean ± in S.E.M. from N animals

serotonin 5HT3 receptors = target: T2, serotonin 5HT3 receptors (Rattus norvegicus, UniProt P35563); test: Affinity for serotonin 5HT3 receptors in rat entorhinal cortex using radioligand 3H-BRL 43694; assay type: binding
T2 construct: assessed for instance in rat entorhinal cortex using a selective radioligand; from tissue; host or cells: rat entorhinal cortex
T2 sequence (P35563 24-483): T1 sequence (P35563 24-483)
Protocol: The affinity for serotonin 5HT3 receptors was assessed for instance in rat entorhinal cortex using a selective radioligand ^3 H-BRL 43694 as described by Nelson and Thomas (1989).
Nelson D. R. and Thomas D. R., [^3 H]-BRL 43694 (Granisetron), a specific ligand for 5HT3 binding sites in rat brain cortical membranes, Biochem. Pharmac., 38, 1693-1695, 1989.
The following Table II summarized the data obtained in this in-vitro test for two representative compounds of the invention.
5-HT3 binding affinity for rat enthiorinal cortex

| Structure (SMILES) | ED50 (5HT3 receptor) [mg/kg] | % inhibition (5HT3 receptor) [%] | IC50 (serotonin 5HT3 receptors) [nM] |
| --- | --- | --- | --- |
| CN1C2CCC1CC(N1Cc3cc4ccccc4n3C1=O)C2 (stereo not drawn) [FCE 28837, (endo)-2-(8-methyl-8-azabicyclo[3.2.1]oct-3-yl)-1,2-dihydro-imidazo[1,5-a]indol-3-one] | 0.0118 | 88.5 | 10 |
| Cl.O=C1N(C2CN3CCC2CC3)Cc2cc3ccccc3n21 (stereo not drawn) [FCE 28841, 2-(1-azabicyclo[2.2.2]oct-3-yl)-1,2-dihydro-imidazo[1,5-a]indol-3-one hydrochloride] | 0.0218 | 90.71 | 7 |

— US5637596A, “Azabicycloalkyl derivatives of imidazo[1,5-a]indol-3-one and process for their preparation” (Pharmacia S.p.A., priority 1994, dated 1997)
